A word on the EC50: it is the concentration at which the effect is half-maximal.

The test system of data set [1] is HIV (LAV Strain). Kind of data set: Antiviral activity in HIV-infected A301 (Alex) cells, read out by reverse transcriptase level. The following applies: Human immunodeficiency virus 1, 168 h. The format is cell-based. The method, then:
This procedure is a modification of a procedure initially described by Chen et al., Biochemical Pharmacology, 36 (24), 4361-4362 (1987).
A301 (Alex) cells are pre-infected with a constant amount of HIV (LAV Strain) for three hours at 37°C. Test compounds and AZT (control) are added to the infected cells in two, three or five-fold dilutions, diluted out four places for screening and eight places for confirmation in 96 well plates. Unless mentioned the highest concentration is […]. The test plates are incubated in CO₂ at 37°C for seven days (incubation time depends on virus pool titer) with a partial medium/sample change on day four of the incubation period. Uninfected A301 cells with sample dilutions, but without virus, are used to evaluate cytotoxicity.
Reverse transcriptase levels are assayed at the end of the incubation period as follows, to determine if antiviral activity is present.
[…] of medium from the HIV infected Alex cells is added to […] of 3.2% Triton X-100. This solution is incubeted for 30 minutes at 37°C, then […] of 4X assay mix is added to it. The 4X assay mix contains [³H]TTP, poly(A).oligo(dT), potassium chloride, magnesium chloride, dithiothreitol, and Tris-HCl buffer, pH8.0. […] The radioactivity remaining on the 3MM paper is quantitated by scintillation counter, and corresponds to reverse transcriptase level.

Data set [2] can be described thus: Cytotoxicity in uninfected A301 cells. As to conditions: human; uninfected A301 cells with sample dilutions, without virus; read-out: Cell Toxicity Partial. The format is cell-based. As to the method: (§1) A301 (Alex) cells are pre-infected with a constant amount of HIV (LAV Strain) for three hours at 37°C. […] Unless mentioned the highest concentration is 200 mM. The test plates are incubated in CO₂ at 37°C for seven days (incubation time depends on virus pool titer) with a partial medium/sample change on day four of the incubation period. Uninfected A301 cells with sample dilutions, but without virus, are used to evaluate cytotoxicity.

The test system of data set [3] is Uninfected A301 cells. Kind of data set: Cytotoxicity in uninfected A301 cells. The format is cell-based. As to conditions: uninfected A301 cells with sample dilutions, without virus. The method, then: as §1
The subject of data set [4] is HIV. As to conditions: prior art statement; cited from earlier work.
For data set [5] the following is noted: prior art statement; cited from earlier work.
The conditions of data set [6]: preliminary results of Biochemical Pharmacology 38, 869-74 (1989); cited from earlier work.

SMILES strings stand for the structures. Read-outs that look alike come from different tables or passages of the source.

Turning to `Cc1cn([C@H]2C[C@H](N=[N+]=[N-])[C@@H](CO)O2)c(=O)[nH]c1=O` [control, 3'-azidothymidine], the EC50 in data set [1] turned out to be 5 nM. In data set [2], the MCC at 168 h was more than 0.04 mM. The “Cell Toxicity Complete” value in data set [3] is more than 40 µM.

With `[N-]=[N+]=N[C@]1(CO)O[C@@H](n2ccc(N)nc2=O)[C@H](O)[C@@H]1O` [4'-azidocytidine], the anti-HIV activity entry in data set [4] was “devoid of anti-HIV activity”. Further, the cytotoxicity result in data set [5] is reported as “cytotoxic”.

For the molecule `[N-]=[N+]=N[C@H]1C[C@H](n2cc(Cl)c(=O)[nH]c2=O)O[C@@H]1CO` [5-chloro-substituted-3'-azido-2',3'-dideoxyuridine], in data set [6], the antiviral activity entry was “potent antiviral activity”.

As to `[N-]=[N+]=N[C@]1(CO)O[C@@H](n2cc(Cl)c(=O)[nH]c2=O)C[C@@H]1O` [A, 1-(4-azido-2-deoxy-β-D-erythro-pentofuranosyl)-5-chloro-2,4-dioxopyrimidine], the EC50 in data set [1] (A301 (Alex) cells pre-infected with HIV (LAV Strain), seven days incubation, reverse transcriptase level, read-out: EC50) was determined as 56 nM. The MCC at 168 h in data set [2] stood at 1 mM. Besides, the “Cell Toxicity Complete” value in data set [3] is more than 1000 µM.

For `O=c1[nH]c(=O)n([C@H]2C[C@H](F)[C@@H](CO)O2)cc1Cl` [5-chloro-substituted-3'-fluoro-2',3'-dideoxyuridine], the antiviral activity entry in data set [6] is recorded as “potent antiviral activity”.

These data come from EP0457326A1, “Antiviral agents” (SYNTEX (U.S.A.) INC., priority 1990, dated 1991).
